Like-named read-outs stand apart in the source and are kept apart here.
What was measured:
Lmna^H222P/H222P mice [1] = test: Echocardiography at 20 weeks of age, second-generation MEK1/2 inhibitors from 16 to 20 weeks; type: in vivo, mouse; conditions: 1 mg/kg/day, 5 days a week from 16 to 20 weeks
Description: The compounds were administered at a dose of 1 mg/kg/day, 5 days a week to Lmna^H222P/H222P mice, as previously described. Treatment was initiated at 16 weeks of age and continued until the mice were 20 weeks of age. At 20 weeks of age, the mice were analyzed by echocardiography and then sacrificed for biochemical studies. Untreated male Lmna^+/+ and Lmna^H222P/H222P mice were similarly analyzed for comparisons.

ERK1/2 = test: Immunoblot of phosphorylated ERK1/2 versus total ERK1/2 in hearts of treated mice; type: in vivo, mouse; conditions: 1 mg/kg/day from 16 to 20 weeks of age
Description: Hearts were excised from mice at 16-weeks of age and were homogenized in RIPA extraction buffer (Cell Signalling) containing protease inhibitors (25 […]). Protein samples were subjected to SDS-PAGE, transferred to nitrocellulose membranes and blotted with primary antibodies against ERK1/2 (Santa-Cruz), phosphorylated ERK1/2 (Cell Signaling), JNK (Santa-Cruz), natriuretic peptide precursor A (Santa-Cruz), phosphorylated JNK (Cell Signaling), and Gapdh (Ambion). Secondary antibodies were HRP-conjugated (Amersham). Recognized proteins were visualized by enhanced chemiluminescence (ECL, Amersham). The signal generated using an antibody against Gapdh was used as internal controls to normalize the amounts of protein between immunoblots.
We assessed the efficacy of the chemical entities in inhibiting their targets in the heart by immunoblot using anti-total ERK1/2 (Santa Cruz) and anti-pERK1/2 (Cell Signaling) antibodies.
Proteins were loaded on 10% SDS gels and electrotransferred on a […] pore size nitrocellulose membrane (Invitrogen). We used antibodies directed against phosphorylated ERK1/2 (Cell Signaling, 1:1,000), total ERK1/2 (Santa Cruz, 1:2,000), phosphorylated JNK (Cell Signaling, 1:1,000) and total JNK (Santa Cruz, 1:200). The secondary antibodies were coupled to horseradish-peroxydase (Amersham). Recognized proteins were visualized by enhanced chemiluminescence (SuperSignal® West Pico chemiluminescent substrate, Thermo Scientific).

[2] = system: hearts from Lmna^H222P/H222P mice; test: Quantitative real-time RT-PCR of mRNAs in hearts of treated mice; type: in vivo, mouse; conditions: for expression of Colla1 and Colla2: 20 weeks of age, 1 mg/kg/day from 16 to 20 weeks
Text: Total RNA was extracted using the Rneasy isolation kit (Qiagen) as previously described (96). cDNA was synthesized as previously described (96) using Omniscript Reverse Transcriptase (Qiagen) on total cellular RNA. For each replicate in each experiment, RNA from tissue samples of different animals was used. Primers were designed that correspond to mouse RNA sequences using Primer3 (http://frodo.wi.mit.edu/cgi-biniprimer3/primer3_www.cgi). The real-time RT-PCR reaction contained iQ SYBR green super mix (Bio-Rad), 200 nM of each primer and 0.2 μl of template in a 25 μl reaction volume. Amplification was carried out using appropriate primers and the MyiQ Single-Color Real-Time PCR Detection System (Bio-Rad) with an initial denaturation at 95° C. for 2 min followed by 50 cycles at 95° C. for 30 s and 62° C. for 30 s. Relative levels of mRNA expression were calculated using the CT method (67). Individual expression values were normalized by comparison with Gapdh mRNA.
Real-time reverse transcription-PCR (RT-PCR) was used to quantify tissue RNA levels. Total RNA was extracted from cardiac ventricles of mice using the Rneasy isolation kit (Qiagen) as previously described. cDNA was synthesized using Superscript first strand synthesis system according to the manufacturer's instructions (Invitrogen) on total RNA. For each replicate in each experiment, RNA from tissue samples of different animals was used. Primers were designed correspond to mouse RNA sequences using Primer3 (http://frodo.wi.mit.edu/cgi-bin/primer3/primer3_www.cgi) for Nppa (forward 5′-[…]-3′ [SEQ ID NO: 4], reverse 5′-[…]-3′ [SEQ ID NO: 5]), Nppb (forward 5′-[…]-3′ [SEQ ID NO: 6], reverse 5′-[…]-3′ [SEQ ID NO: 7]), Mlc-2a (forward 5′-[…]-3′ [SEQ ID NO: 8], reverse 5′-[…]-3′ [SEQ ID NO: 9]), Colla1 (forward 5′-[…]-3′ [SEQ ID NO: 10], reverse 5′-[…]-3′ [SEQ ID NO: 11]), Colla2 (forward 5′-[…]-3′ [SEQ ID NO: 12], reverse 5′-[…]-3′ [SEQ ID NO: 13]) and Fn1 (forward 5′-[…]-3′ [SEQ ID NO: 14], reverse 5′-[…]-3′ [SEQ ID NO: 15]). The real-time RT-PCR reaction contained iQ SYBR green super mix (Bio-Rad), 200 nM of each primer, and 0.2 μl of template in a 25 μl reaction volume. Amplification was carried out using the MyiQ Single-Color Real-Time PCR Detection System (Bio-Rad) with an initial denaturation at 95° C. for […] followed by 50 cycles at 95° C. for 30 s and 62° C. for 30 s. Relative levels of mRNA expression were calculated using the ΔΔCT method (2). Individual expression values were normalized by comparison with Gapdh mRNA (forward 5′-[…]-3′ [SEQ ID NO: 16], reverse 5′-[…]-3′ [SEQ ID NO: 17]).

[3] = system: hearts from Lmna^H222P/H222P mice; test: Quantification of myocardial fibrotic area (Gomori's trichrome); type: in vivo, mouse; conditions: 20 weeks of age; 1 mg/kg/day from 16 to 20 weeks; DMSO 20.93%±2.45%
Text: Later-stage cardiomyopathy caused by LMNA mutations is characterized by myocardial fibrosis. […] We quantified the myocardial fibrotic area of each animal by determining the ratio of fibrotic tissue (blue stained with Gomori's trichrome) to the total tissue area in each micrograph (FIG. 8B). Hearts from DMSO-treated Lmna^H222P/H222P mice had 20.93%±2.45% fibrotic tissue per total surface examined (FIG. 8B).
Mice were sacrificed at 20 weeks of age, and freshly removed hearts were fixed in 4% formaldehyde for 48 hours, embedded in paraffin, sectioned at 5 μm and stained with hematoxylin, eosin and Gomori's trichrome and Syrius Red. Representative stained sections were photographed using a Microphot SA (Nikon) light microscope attached to a Spot RT Slide camera (Diagnostic Instruments) with a 10× objective. Images were processed using Adobe Photoshop CS (Adobe Systems).
Later-stage cardiomyopathy caused by LMNA mutations is characterized by myocardial fibrosis (21,22). […] We quantified the myocardial fibrotic area of each animal by determining the ratio of fibrotic tissue (blue stained with Gomori's trichrome) to the total tissue area in each micrograph (FIG. 34C). Hearts from DMSO-treated Lmna^H222P/H222P mice had 15.01±0.9% fibrotic tissue per total surface examined (FIG. 34D).

[4] = system: atrial natriuretic factor; test: Serum atrial natriuretic factor before and after treatment; type: in vivo, mouse; conditions: before (16 weeks) and after (20 weeks) treatment; compared to DMSO-treated mice
Text: We measured the expression of atrial-natriuretic factor in the serum Lmna^H222P/H222P mice before (16 weeks) and after (20 weeks) the treatment with the MEK1/2 inhibitors (FIG. 3).

MEK1/2 = conditions: Table 10, description of MEK1/2 inhibitors; cited from earlier work
Lmna^H222P/H222P mice [5] = type: in vivo, mouse; conditions: Lmna^H222P/H222P mice at 16 weeks of age; i.p. 5 days a week from 8 to 16 weeks (PD98059, SP600125 3 mg/kg/day); means ± standard deviations
Description: PD98059 (Calbiochem) and SP600125 (Calbiochem) were dissolved in Dimethyl Sulfoxide (DMSO, Sigma) at a concentration of 0.5 mg/ml and were delivered to a dose of 3 mg/kg/day for 5 days a week. […] The placebo control consisted of DMSO alone. Placebo and inhibitors were administered by intraperitoneal injection using a 27G^5/8 syringe. Treatment was started when mice were 8 weeks of age and continued until 16 weeks of age.
Lmna H222P knock-in mice were generated and genotyped as described (14). […] Lmna^H222P/H222P mice were separated by sex and were given either vehicle alone (DMSO), the MEK inhibitor PD98059 alone, the JNK inhibitor SP600125 alone, both PD98059 and SP600125 together, the MEK inhibitor U0126 alone, or the MEK inhibitor MEK1/2 alone. All the mice were fed on a chow diet and housed in a barrier facility. The Institutional Animal Care and Use Committee at Columbia University Medical Center approved the use of animals in the study protocol.
Cardiac function was assessed by echocardiography with a Visualsonics Vevo 770 ultrasound with a 30-MHz transducer applied to the chest wall. Cardiac ventricular dimensions and ejection fraction were measured in 2D-mode and M-mode three times for the number of animals indicated. A “blinded” echocardiographer, unaware of the genotype or treatment, performed the examinations.
We administered PD98059, at a dose of 3 mg/kg/day or 6 mg/kg/day, or placebo (dimethylsulfoxide; DMSO) by intraperitoneal injection 5 days a week to male homozygous Lmna mutant mice (Lmna^H222P/H222P). […] PD98059 mediates its inhibitory properties by binding to MEK, therefore preventing phosphorylation of ERK1/2.
Treatment was initiated at 8 weeks of age and continued until the mice were 16 weeks of age. At 16 weeks of age, the mice were analyzed by echocardiography and then sacrificed for histological and biochemical studies. Untreated male Lmna^+/+ and Lmna^H222P/H222P mice were similarly analyzed for comparisons.

[6] = 1 mg/kg/day from 16 to 20 weeks of age

Structure (SMILES)	FS improvement (Lmna^H222P/H222P mice [1])	LVEDD compared to DMSO-treated mice (Lmna^H222P/H222P mice [1])	phosphorylation of ERK1 and ERK2 in hearts (ERK1/2)	expression of Colla1 and Colla2 [2]	area of fibrotic tissue per total surface examined [3]	expression of atrial natriuretic factor in serum [4]	IC50 (MEK1/2)	EF (Lmna^H222P/H222P mice [5])	FS (Lmna^H222P/H222P mice [5])	IVSD (Lmna^H222P/H222P mice [5])	LVEDD (Lmna^H222P/H222P mice [5])	LVESD (Lmna^H222P/H222P mice [5])	LVPW (Lmna^H222P/H222P mice [5])	FS (Lmna^H222P/H222P mice [1])	cardiac expression of brain natriuretic factor (Nppb) [2, 6]	decrease of Mlc-1a and Mlc-2a mRNAs compared to hearts of DMSO-treated mice [2, 6]	LVESD compared to DMSO-treated mice (Lmna^H222P/H222P mice [1])
O=C(NOCC1CC1)c1ccc(F)c(F)c1Nc1ccc(I)cc1Cl [CI-1040]	not improved	significantly smaller	inhibited partially	significantly lowered	13.10%±0.96%	significantly decreased	1 nM	–	–	–	–	–	–	–	–	–	–
N#CC(=C(N)Sc1ccc(N)cc1)c1ccccc1C(F)(F)F [MEK1/2, Z-& E-a-(amino-((4-aminophenyl)thio)methylene)-2-(trifluoromethyl)benzeneacetonitrile]	–	–	–	–	–	–	–	64.43 ± 0.77%	34.50 ± 0.36%	0.60 ± 0.00 mm	3.77 ± 0.32 mm	2.62 ± 0.28 mm	0.69 ± 0.08 mm	–	–	–	–
O=C(NOCC(O)CO)c1ccc(F)c(F)c1Nc1ccc(I)cc1F (centres unmarked) [PD0325901]	–	–	inhibited partially	significantly lowered	15.06%±0.28%	trend toward diminished expression	–	–	–	–	–	–	–	23.23%±6.33%	decreased	approximately 2 fold	–
Cn1cnc2c(F)c(Nc3ccc(Br)cc3Cl)c(C(=O)NOCCO)cc21 [AZD6244]	–	significantly smaller	inhibited partially	significantly lowered	11.90%±1.97%	significantly decreased	10 nM	–	–	–	–	–	–	25.97%±5.05%	–	approximately 2 fold	significantly smaller
N#CC(=C(N)Sc1ccccc1N)C(C#N)=C(N)Sc1ccccc1N [U0126, 1,4-diamino-2,3-dicyano-1,4-bis(2-aminophenylthio)butadiene]	–	–	–	–	–	–	–	62.83 ± 4.09%	33.79 ± 3.10%	0.64 ± 0.03 mm	3.54 ± 0.16 mm	2.47 ± 0.09 mm	0.69 ± 0.11 mm	–	–	–	–
